Like-named read-outs stand apart in the source and are kept apart here.
Legend:
Assay type in all cases: cell-based
[1] = molecular target: T1, human muscarinic M1 receptor (Homo sapiens, UniProt P11229); assay: Alphascreen Surefire phospho-ERK1/2 functional assay, M1; conditions: for EC50 / M1 % Emax cf. ACh: CHO cells stably expressing human M1; for EC50: phospho-ERK1/2, read-out: pEC50 M1 (converted); for Emax: CHO
T1 sequence (P11229 1-460): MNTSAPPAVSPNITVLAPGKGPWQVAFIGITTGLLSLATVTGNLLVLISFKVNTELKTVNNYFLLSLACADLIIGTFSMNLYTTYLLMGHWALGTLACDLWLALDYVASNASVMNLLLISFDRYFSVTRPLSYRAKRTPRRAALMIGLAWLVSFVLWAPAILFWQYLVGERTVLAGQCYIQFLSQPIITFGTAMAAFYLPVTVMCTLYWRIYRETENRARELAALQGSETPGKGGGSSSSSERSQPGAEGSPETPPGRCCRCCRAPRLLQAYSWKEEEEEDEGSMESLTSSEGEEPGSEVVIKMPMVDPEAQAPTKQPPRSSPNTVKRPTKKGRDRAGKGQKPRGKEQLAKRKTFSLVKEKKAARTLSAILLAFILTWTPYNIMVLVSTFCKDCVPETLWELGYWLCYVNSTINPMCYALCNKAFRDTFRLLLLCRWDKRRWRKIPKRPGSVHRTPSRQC
Summary of the method: (§1)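 The assay used ERK1/2 phosphorylation as a common downstream read-out of Gq/11 and Gi/o receptor activation. CHO cells expressing each human receptor were exposed to agonist for five minutes at 37 °C after overnight serum starvation. Potency (pEC50) and maximal effect (Emax) came from the AlphaScreen signal.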

[2] = molecular target: T2, human muscarinic M2 receptor (Homo sapiens, UniProt P08172); assay: Alphascreen Surefire phospho-ERK1/2 functional assay, M2; conditions: for EC50: CHO cells stably expressing human M2, phospho-ERK1/2, read-out: pEC50 M2 (converted); for Emax: CHO, read-out: M2 % Emax cf. ACh
T2 sequence (P08172 1-466): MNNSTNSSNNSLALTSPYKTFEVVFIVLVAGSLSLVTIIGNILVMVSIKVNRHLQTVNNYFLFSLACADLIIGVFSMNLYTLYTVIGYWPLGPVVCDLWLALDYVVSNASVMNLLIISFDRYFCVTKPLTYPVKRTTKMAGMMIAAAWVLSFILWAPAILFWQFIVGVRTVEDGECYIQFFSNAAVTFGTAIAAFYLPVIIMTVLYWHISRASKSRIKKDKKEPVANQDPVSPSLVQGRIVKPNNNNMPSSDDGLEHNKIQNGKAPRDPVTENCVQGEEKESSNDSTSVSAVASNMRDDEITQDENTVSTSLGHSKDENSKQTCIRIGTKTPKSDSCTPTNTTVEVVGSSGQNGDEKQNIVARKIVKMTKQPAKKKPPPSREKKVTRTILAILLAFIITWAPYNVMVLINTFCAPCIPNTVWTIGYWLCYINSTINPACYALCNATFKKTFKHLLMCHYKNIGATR
Method: Functional assays were performed using the Alphascreen Surefire phospho-ERK1/2 assay (Crouch & Osmond, Comb. Chem. High Throughput Screen, 2008). ERK1/2 phosphorylation is a downstream consequence of both Gq/11 and Gi/o protein coupled receptor activation, making it highly suitable for the assessment of M1, M3 (Gq/11 coupled) and M2, M4 receptors (Gi/o coupled), rather than using different assay formats for different receptor subtypes. CHO cells stably expressing the human muscarinic M1, M2, M3 or M4 receptor were plated (25K/well) onto 96-well tissue culture plates in MEM-alpha+10% dialysed FBS. Once adhered, cells were serum-starved overnight. Agonist stimulation was performed by the addition of 5 μL agonist to the cells for 5 min (37° C.). Media was removed and 50 μL of lysis buffer added. After 15 min, a 4 μL sample was transferred to 384-well plate and 7 μL of detection mixture added. Plates were incubated for 2 h with gentle agitation in the dark and then read on a PHERAstar plate reader.
pEC50 and Emax figures were calculated from the resulting data for each receptor subtype.

[3] = molecular target: T3, human muscarinic M3 receptor (Homo sapiens, UniProt P20309); assay: Alphascreen Surefire phospho-ERK1/2 functional assay, M3; conditions: for EC50: CHO cells stably expressing human M3, phospho-ERK1/2, read-out: pEC50 M3 (converted); for Emax: CHO, read-out: M3 % Emax cf. ACh
T3 construct: expressed in transfected cells
Summary of the method: as §1

[4] = molecular target: T4, human muscarinic M4 receptor (Homo sapiens, UniProt P08173); assay: Alphascreen Surefire phospho-ERK1/2 functional assay, M4; conditions: for EC50 / M4 % Emax cf. ACh: CHO cells stably expressing human M4; for EC50: phospho-ERK1/2, read-out: pEC50 M4 (converted); for Emax: CHO
T4 construct: expressed in transfected cells
T4 sequence (P08173 1-479): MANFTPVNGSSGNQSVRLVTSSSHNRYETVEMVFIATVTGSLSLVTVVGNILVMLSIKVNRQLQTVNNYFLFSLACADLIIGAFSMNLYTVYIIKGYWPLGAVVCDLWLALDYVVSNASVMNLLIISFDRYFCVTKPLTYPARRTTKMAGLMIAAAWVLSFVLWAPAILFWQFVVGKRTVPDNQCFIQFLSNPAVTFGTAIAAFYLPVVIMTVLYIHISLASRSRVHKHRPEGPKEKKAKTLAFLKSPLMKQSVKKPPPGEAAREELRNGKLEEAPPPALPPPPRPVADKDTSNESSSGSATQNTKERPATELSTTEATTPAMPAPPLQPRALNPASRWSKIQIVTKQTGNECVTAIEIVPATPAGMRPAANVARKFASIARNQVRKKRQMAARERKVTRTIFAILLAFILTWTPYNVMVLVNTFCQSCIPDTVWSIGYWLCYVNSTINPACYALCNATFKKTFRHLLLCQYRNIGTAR
Summary of the method: as §1

[5] = read-out: M1 % Emax cf. ACh, CHO cells stably expressing human M1, Emax relative to ACh
[6] = read-out: M4 % Emax cf. ACh, CHO cells stably expressing human M4, Emax relative to ACh

T3 sequence (P20309 whole entry): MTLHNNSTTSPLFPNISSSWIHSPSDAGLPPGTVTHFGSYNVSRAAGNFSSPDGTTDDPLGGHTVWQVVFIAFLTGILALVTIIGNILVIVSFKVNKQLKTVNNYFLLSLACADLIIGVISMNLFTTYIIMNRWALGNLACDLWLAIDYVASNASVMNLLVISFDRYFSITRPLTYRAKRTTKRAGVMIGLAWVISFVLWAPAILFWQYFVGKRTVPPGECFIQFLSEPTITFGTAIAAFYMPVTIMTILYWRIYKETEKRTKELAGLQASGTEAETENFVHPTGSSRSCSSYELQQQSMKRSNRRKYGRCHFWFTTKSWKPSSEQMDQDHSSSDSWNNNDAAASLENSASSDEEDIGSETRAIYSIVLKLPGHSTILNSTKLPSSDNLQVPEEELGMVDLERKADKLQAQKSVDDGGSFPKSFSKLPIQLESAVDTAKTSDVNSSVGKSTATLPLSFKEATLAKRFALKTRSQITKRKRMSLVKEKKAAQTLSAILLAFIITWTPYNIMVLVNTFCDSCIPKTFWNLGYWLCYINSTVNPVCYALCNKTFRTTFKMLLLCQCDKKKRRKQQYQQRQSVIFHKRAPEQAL

| Structure (SMILES) | EC50 [1] [nM] | Emax [1, 5] [%] | EC50 [2] [nM] | Emax [2] [%] | EC50 [3] [nM] | Emax [3] [%] | EC50 [4] [nM] | Emax [4, 6] [%] | M1 % Emax cf. ACh ([1]; Emax relative to ACh) [%] | M4 % Emax cf. ACh ([4]; Emax relative to ACh) [%] | Emax ([1]; read-out: M1 % Emax cf. ACh) [%] | Emax ([4]; read-out: M4 % Emax cf. ACh) [%] |
| --- | --- | --- | --- | --- | --- | --- | --- | --- | --- | --- | --- | --- |
| CC#CCOC(=O)N1CCCN(C2CCC(C#N)(c3ccc(OC)cn3)CC2)CC1 (single isomer, unassigned) [3-32 Isomer 1] | 22.4 | 106 | > 20000 | 2 | > 20000 | 0 | 759 | 30 | – | – | – | – |
| CCCC(=O)N1CCCN(C2CCC3(CC2)C(=O)Nc2ccccc23)CC1 (single isomer, unassigned) [4-3 isomer 2] | 794 | 57 | > 20000 | 3 | > 20000 | 2 | > 20000 | 20 | – | – | – | – |
| CCOC(=O)N1CCCN(C2CCC3(CC2)C(=O)Nc2cc(C)ccc23)CC1 (single isomer, unassigned) [4-6 isomer 2] | 36.3 | – | > 15800 | 39 | > 15800 | 17 | 75.9 | – | 130 | 116 | – | – |
| CCOC(=O)N1CCCN(C2CCC3(CC2)C(=O)Nc2ccc(C)cc23)CC1 (single isomer, unassigned) [4-7 isomer 1] | 44.7 | 115 | > 20000 | 16 | > 20000 | 20 | 5370 | 100 | – | – | – | – |
| CCOC(=O)N1CCCN(C2CCC3(CC2)C(=O)Nc2cccc(C)c23)CC1 (single isomer, unassigned) [4-8 isomer 2] | 204 | – | > 20000 | 17 | > 20000 | 9 | 97.7 | – | 97 | 95 | – | – |
| CCOC(=O)N1CCCN(C2CCC3(CC2)C(=O)Nc2cc(OC)ccc23)CC1 (single isomer, unassigned) [4-11 isomer 2] | 132 | 107 | > 20000 | 9 | > 20000 | 2 | 309 | 55 | – | – | – | – |
| CCOC(=O)N1CCCN(C2CCC3(CC2)C(=O)Nc2ccc(OC)cc23)CC1 (single isomer, unassigned) [4-12 isomer 1] | 89.1 | 107 | > 20000 | 3 | > 20000 | 34 | > 20000 | 10 | – | – | – | – |
| CCOC(=O)N1CCCN(C2CCC(c3nc(CC)c(C)[nH]3)CC2)CC1 (single isomer, unassigned) [5-1 Isomer 2] | 66.1 | 115 | > 20000 | 8 | > 20000 | 7 | 513 | 26 | – | – | – | – |
| CCOC(=O)N1CCC2(CCN(C3CCC4(CC3)C(=O)Nc3ccccc34)CC2)C1 (single isomer, unassigned) [12-1 isomer 1] | 13.8 | 109 | > 20000 | 18 | > 20000 | 1 | 4.79 | 82 | – | – | – | – |
| CCOC(=O)N1CCC2(CCN(C3CCC4(CC3)C(=O)N(C(=O)OCC)c3ccccc34)CC2)C1 (single isomer, unassigned) [12-2 isomer 1] | 25.7 | 65 | > 20000 | 27 | > 20000 | 0 | 10.7 | 48 | – | – | – | – |
| CCOC(=O)N1CCC2(CCN(C3CCC(C#N)(c4ccccc4)CC3)CC2)C1 (single isomer, unassigned) [13-1 Isomer 2] | 0.447 | – | > 20000 | 21 | > 20000 | 7 | 0.145 | – | – | – | 121 | 121 |

The next lines start with results.

| EC50 [1] [nM] | Emax [1, 5] [%] | EC50 [2] [nM] | Emax [2] [%] | EC50 [3] [nM] | Emax [3] [%] | EC50 [4] [nM] | Emax [4, 6] [%] | M1 % Emax cf. ACh ([1]; Emax relative to ACh) [%] | M4 % Emax cf. ACh ([4]; Emax relative to ACh) [%] | Structure (SMILES) | Emax ([1]; read-out: M1 % Emax cf. ACh) [%] | Emax ([4]; read-out: M4 % Emax cf. ACh) [%] |
| --- | --- | --- | --- | --- | --- | --- | --- | --- | --- | --- | --- | --- |
| 58.9 | 129 | > 20000 | 0 | > 20000 | 12 | 53.7 | 49 | – | – | CCOC(=O)NCC1CCN(C2CCC(C#N)(c3ccccc3)CC2)CC1 (single isomer, unassigned) [6-2-Isomer 2] | – | – |
| 75.9 | – | > 20000 | 37 | > 20000 | 3 | 170 | – | 122 | 32 | CCOC(=O)NCC1CCN(C2CCC3(CC2)C(=O)Nc2ccccc23)CC1 (single isomer, unassigned) [7-2 isomer 1] | – | – |
| 275 | 105 | > 20000 | 1 | > 20000 | 3 | > 20000 | 19 | – | – | CCOC(=O)N1CC2(CCN(C3CCC(C#N)(c4ccccc4)CC3)CC2)C1 (single isomer, unassigned) [11-1 Isomer 2] | – | – |
| 155 | 117 | > 20000 | 14 | > 20000 | 6 | 145 | 21 | – | – | CCOC(=O)N1CCC2CN(C3CCC(C#N)(c4ccccc4)CC3)CC21 (single isomer, unassigned) [15-1 Isomer 2] | – | – |
| 97.7 | 111 | > 20000 | 9 | > 20000 | 9 | 251 | 61 | – | – | CCOC(=O)N1CC2CN(C3CCC(C#N)(c4ccccc4)CC3)CCC21 (single isomer, unassigned) [17-1 Isomer 2] | – | – |
| 1740 | 45 | > 20000 | 21 | > 20000 | 8 | 224 | 83 | – | – | Cc1noc([C@H]2CC[C@@H](NC3CCC(C#N)(c4ccccn4)CC3)C2)n1 (single isomer, unassigned) [19-1 Isomer 2] | – | – |
| 191 | 118 | 2400 | 35 | > 20000 | 5 | 138 | 96 | – | – | CCc1noc([C@H]2CC[C@@H](NC3CCC(C#N)(c4ccccc4)CC3)C2)n1 (single isomer, unassigned) [19-2 Isomer 2] | – | – |

From patent US10759751B2, “Substituted spirocyclohexanes as muscarinic M1 receptor and/or M4 receptor agonists” (Heptares Therapeutics Limited, priority 2016, dated 2020)
